Test results taken from patent US20050148647A1, “Hemodialysis solutions and uses thereof” (priority 2003, published 2005).

Assay: dog dialysis model: hemodialysis with casein hydrolysate-enriched dialysate, plasma amino acid content;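 further: anesthetized dogs on 4 h hemodialysis with bicarbonate dialysate, one enriched with vitamin-free casein acid hydrolysate, control animal on standard dialysis, plasma amino acids measured at 0 and 4 h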
Conditions: casein group, over the course of dialysis
Protocol: (§1) Supplementation with casein hydrolysate was evaluated in a dog dialysis model. Two dogs were dialyzed: a control animal underwent four hours of standard hemodialysis. The second animal was dialyzed with dialysate enriched with vitamin-free casein acid hydrolysate under otherwise identical conditions. The dogs were anesthetized and ventilated; venous access for dialysis was achieved via two peripheral venous lines, right femoral and left external jugular. A routine, bicarbonate-based dialysis solution, Centrisol™, was used with both animals and diluted with filtered water by the hemodialysis machine to the appropriate concentration. […] The animals were dialyzed for four hours with a blood flow rate of 300 ml/min and a dialysate flow rate of 500 ml/min. Plasma and dialysate samples were from both animals at t=0 and t=4 hours were analyzed for amino acid content. Additional samples were taken from the serum post-filter and from the dialysate immediately pre-filter.
For `N[C@@H](CO)C(=O)O` [serine], the “direction of change of plasma concentration of the amino acid (in words)” value was “remained the same concentration”. With `NCC(=O)O` [glycine] the “direction of change of plasma concentration of the amino acid (in words)” value was “decreased”.

Assay: in vivo
Conditions: dog, plasma
Protocol: as §1
With `N[C@@H](CC(=O)O)C(=O)O` [aspartate] the concentration at 0 h was 2 µM and the concentration at 4 h was 12 µM. In the case of `N[C@@H](Cc1c[nH]c2ccccc12)C(=O)O` [tryptophan], the concentration at 0 h is reported as 52 µM and the concentration at 4 h is reported as 52 µM. With `N=C(N)NCCC[C@H](N)C(=O)O` [arginine] the concentration at 0 h was 132 µM and the concentration at 4 h was 148 µM. In the case of `N[C@@H](Cc1ccc(O)cc1)C(=O)O` [tyrosine], the concentration at 0 h is reported as 28 µM and the concentration at 4 h is reported as 48 µM. With `O=C(O)[C@@H]1CCCN1` [proline] the concentration at 0 h was 336 µM and the concentration at 4 h was 428 µM. `CC(C)C[C@H](N)C(=O)O` [leucine] showed a concentration at 0 h of 126 µM and a concentration at 4 h of 290 µM. For `CC(C)[C@H](N)C(=O)O` [valine], the concentration at 0 h was 118 µM and the concentration at 4 h was 242 µM. With `C[C@@H](O)[C@H](N)C(=O)O` [threonine] the concentration at 0 h was 108 µM and the concentration at 4 h was 128 µM. Work on `N[C@@H](CS)C(=O)O` [cysteine] yielded a concentration at 0 h of 8 µM and a concentration at 4 h of 12 µM. For `CC[C@H](C)[C@H](N)C(=O)O` [isoleucine], the concentration at 0 h was 46 µM and the concentration at 4 h was 138 µM. For `N[C@@H](Cc1ccccc1)C(=O)O` [phenylalanine], the concentration at 0 h was 34 µM and the concentration at 4 h was 82 µM. With `C[C@H](N)C(=O)O` [alanine] the concentration at 0 h was 658 µM and the concentration at 4 h was 712 µM. `N[C@@H](CO)C(=O)O` [serine] showed a concentration at 0 h of 154 µM and a concentration at 4 h of 154 µM. `CSCC[C@H](N)C(=O)O` [methionine] gave a concentration at 0 h of 44 µM and a concentration at 4 h of 86 µM. `NCC(=O)O` [glycine] showed a concentration at 0 h of 306 µM and a concentration at 4 h of 260 µM. Work on `N[C@@H](Cc1c[nH]cn1)C(=O)O` [histidine] yielded a concentration at 0 h of 68 µM and a concentration at 4 h of 88 µM. With `NCCCC[C@H](N)C(=O)O` [lysine] the concentration at 0 h was 98 µM and the concentration at 4 h was 198 µM.
